Measurements published in patent US7598384B2, “Tetrahydroquinolinones and their use as antagonists of metabotropic glutamate receptors” (Merz Pharma GmbH & Co. KGAA, priority 2004, dated 2009).
Structures can show the parent of a compound that is named as a salt.

Row | SMILES | melting point [°C]
1 | CC(C)COc1ccc2c(n1)CC(C)(C)CC2=O.Cl | 157 to 158
2 | CC1(C)CC(=O)c2ccc(OCc3ccccc3)nc2C1.Cl | 87 to 88
3 | CC1(C)CC(=O)c2ccc(NCc3ccccc3)nc2C1.Cl | 215 to 216
4 | CC1(C)CC(=O)c2ccc(CCc3ccccc3)nc2C1.Cl | 173 to 175
5 | CC1(C)CC(=O)c2ccc(Cc3ccccc3)nc2C1.Cl | 202 to 204
6 | Cl.O=C1CCCc2nc(Cc3ccccc3)ccc21 | 185 to 187
7 | COc1ccccc1CCc1ccc2c(n1)CCCC2=O.Cl | 160 to 162
8 | Cl.O=C1CCCc2nc(C34CC5CC(CC(C5)C3)C4)ccc21 | 214 to 216
9 | CC1(C)CC(=O)c2ccc(C34CC5CC(CC(C5)C3)C4)nc2C1.Cl | 210 to 212
10 | CC1(C)CC(=O)c2cc(C#N)c(NCc3ccccc3)nc2C1.Cl | 163 to 164
11 | CC1(C)CC(=O)c2ccc(OC3CCCCC3)nc2C1.Cl | 126 to 127
12 | O=C1CC2(CCCCC2)Cc2nc(OCc3ccccc3)ccc21 (as salt: hydrochloride) [Example 25, 2-Benzyloxy-7,7-pentamethylene-7,8-dihydro-6H-quinoline-5-one hydrochloride] | 276 to 277
13 | O=C1CC2(CCCCC2)Cc2nc(C34CC5CC(CC(C5)C3)C4)ccc21 (as salt: hydrochloride) [Example 27, 2-Adamantan-1-yl-7,7-pentamethylene-7,8-dihydro-6H-quinoline-5-one hydrochloride] | 221 to 222
14 | CCCCCCc1ccc2c(n1)CC(c1ccc(N(C)C)cc1)CC2=O (stereo not drawn) (as salt: hydrochloride) [Example 32, 7-(4-Dimethylamino-phenyl)-2-hexyl-7,8-dihydro-6H-quinolin-5-one dihydrochloride] | 195 to 196
15 | CC1(C)CCc2nc(C34CC5CC(CC(C5)C3)C4)ccc2C1=O (as salt: hydrochloride) [Example 41, 2-Adamantan-1-yl-6,6-dimethyl-7,8-dihydro-6H-quinolin-5-one hydrochloride] | 203 to 204
16 | CCCCCCc1ccc2c(n1)C(C)CC(C)(C)C2=O (stereo not drawn) (as salt: hydrochloride) [Example 55, 2-Hexyl-6,6,8-trimethyl-7,8-dihydro-6H-quinolin-5-one hydrochloride] | 199 to 200
17 | COc1cccc(-c2ccc3c(n2)CC2(CCCC2)CC3=O)c1 (as salt: hydrochloride) [Example 59, 2-(3-Methoxy-phenyl)-7,7-tetramethylene-7,8-dihydro-6H-quinolin-5-one hydrochloride] | 233 to 234
18 | CCCC1CCc2nc(-c3ccc(OC)cc3)ccc2C1=O (stereo not drawn) (as salt: hydrochloride) [Example 60, 2-(4-Methoxy-phenyl)-6-propyl-7,8-dihydro-6H-quinolin-5-one hydrochloride] | 212 to 213
19 | CCC1CC(=O)c2ccc(-c3ccc(OC)cc3)nc2C1 (stereo not drawn) (as salt: hydrochloride) [Example 70, 7-Ethyl-2-(4-methoxy-phenyl)-7,8-dihydro-6H-quinolin-5-one hydrochloride] | 232 to 233
20 | CCCCSc1nc2c(cc1C#N)C(=O)CC(C)(C)C2 [Example 1, 2-Butylsulfanyl-7,7-dimethyl-5-oxo-5,6,7,8-tetrahydroquinoline-3-carbonitrile] | 50 to 52
21 | CCCSc1nc2c(cc1C#N)C(=O)CC(C)(C)C2 [Example 2, 7,7-Dimethyl-5-oxo-2-propylsulfanyl-5,6,7,8-tetrahydroquinoline-3-carbonitrile] | 100 to 102
22 | CC(C)Sc1nc2c(cc1C#N)C(=O)CC(C)(C)C2 [Example 3, 2-Isopropylsulfanyl-7,7-dimethyl-5-oxo-5,6,7,8-tetrahydroquinoline-3-carbonitrile] | 135 to 136
23 | C=C(C)CSc1nc2c(cc1C#N)C(=O)CC(C)(C)C2 [Example 4, 7,7-Dimethyl-2-(2-methylallysulfanyl)-5-oxo-5,6,7,8-tetrahydroquinoline-3-carbonitrile] | 78 to 79
24 | CC(C)CSc1nc2c(cc1C#N)C(=O)CC(C)(C)C2 [Example 5, 2-Isobutylsulfanyl-7,7-dimethyl-5-oxo-5,6,7,8-tetrahydroquinoline-3-carbonitrile] | 75 to 76
25 | C=C(C)CSc1nc2c(cc1C#N)C(=O)CCC2 [Example 6, 2-(2-Methylallylsulfanyl)-5-oxo-5,6,7,8-tetrahydroquinoline-3-carbonitrile] | 85 to 86
26 | CC1(C)CC(=O)c2cc(C#N)c(N3CCCCC3)nc2C1 [Example 7, 7,7-Dimethyl-5-oxo-2-piperidin-1-yl-5,6,7,8-tetrahydro-quinoline-3-carbonitrile] | 99 to 100
27 | COc1ccc(Nc2ccc3c(n2)CC(C)(C)CC3=O)cc1 [Example 86, 2-(4-Methoxy-phenylamino)-7,7-dimethyl-7,8-dihydro-6H-quinolin-5-one] | 149 to 150
28 | O=C1c2ccc(Nc3ccccc3)nc2CC2CCCCC12 (stereo not drawn) [Example 111, 2-Phenylamino-6,7,8,9,9a,10-hexahydro-5aH-benzo[g]quinolin-5-one] | 214 to 216
29 | CC(Nc1ccc2c(n1)CC1CCCCC1C2=O)c1ccccc1 (stereo not drawn) [Example 112, 2-(1-Phenyl-ethylamino)-6,7,8,9,9a,10-hexahydro-5aH-benzo[g]quinolin-5-one] | 156 to 158
30 | O=C1c2ccc(N3CCN(c4ccccc4)CC3)nc2CC2CCCCC12 (stereo not drawn) [Example 114, 2-(4-Phenyl-piperazin-1-yl)-6,7,8,9,9a,10-hexahydro-5aH-benzo[g]quinolin-5-one] | 164 to 166
